Values after ≈ are worked out from the molar mass of the structure shown.
Test system: P. aeruginosa
Experiment: microbe, parasite or virus in culture
Procedure, shortened: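 MICs were scored by eye after 18-20 h static incubation at 37 °C, with bacteria at 5 × 10^5 CFU mL^−1 in MHB. Peptides were serially diluted 2-fold over 12 points, top 128 or 64 μg mL^−1. CAMHB (CLSI) and 1% agarose-MHB variants were also run, at least six replicates.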

With `NC[C@H]1O[C@H](O[C@H]2[C@H](O)[C@@H](O[C@H]3O[C@H](CO)[C@@H](O)[C@H](N)[C@H]3O)[C@H](N)C[C@@H]2N)[C@H](N)C[C@@H]1O` [TOB] the “MIC, broth microdilution” value (P. aeruginosa ATCC 27853 parent strain not exposed to drug) was 0.5 µg/mL (≈ 1.07 µM), the “MIC, broth microdilution” value (P. aeruginosa ATCC 27853 spontaneous mutant, AA139 selection 4X, plate 1, colony 1, drug-free passage 1) was 1 µg/mL (≈ 2.14 µM) and the “MIC, broth microdilution” value (P. aeruginosa ATCC 27853 spontaneous mutant, AA139 selection 4X, plate 1, colony 1, drug-free passage 5) was 0.5 µg/mL (≈ 1.07 µM). The “MIC, broth microdilution” value (P. aeruginosa ATCC 27853 spontaneous mutant, AA139 selection 4X, plate 1, colony 2, drug-free passage 1) was 0.5, 0.5 µg/mL, the “MIC, broth microdilution” value (P. aeruginosa ATCC 27853 spontaneous mutant, AA139 selection 4X, plate 1, colony 2, drug-free passage 5) was 0.5, 0.5 µg/mL and the “MIC, broth microdilution” value (P. aeruginosa ATCC 27853 spontaneous mutant, AA139 selection 4X, plate 1, colony 3, drug-free passage 1) was 0.5, 0.5 µg/mL. The “MIC, broth microdilution” value (P. aeruginosa ATCC 27853 spontaneous mutant, AA139 selection 4X, plate 1, colony 3, drug-free passage 5) was 0.5, 0.5 µg/mL, the “MIC, broth microdilution” value (P. aeruginosa ATCC 27853 spontaneous mutant, AA139 selection 4X, plate 1, colony 4, drug-free passage 1) was 0.5, 0.5 µg/mL and the “MIC, broth microdilution” value (P. aeruginosa ATCC 27853 spontaneous mutant, AA139 selection 4X, plate 1, colony 4, drug-free passage 5) was 0.5, 0.5 µg/mL. For the same compound, the “MIC, broth microdilution” value (P. aeruginosa ATCC 27853 spontaneous mutant, AA139 selection 4X, plate 1, colony 5, drug-free passage 1) was 1 µg/mL (≈ 2.14 µM), the “MIC, broth microdilution” value (P. aeruginosa ATCC 27853 spontaneous mutant, AA139 selection 4X, plate 1, colony 5, drug-free passage 5) was 0.5 µg/mL (≈ 1.07 µM) and the “MIC, broth microdilution” value (P. aeruginosa ATCC 27853 spontaneous mutant, AA139 selection 4X, plate 1, colony 6, drug-free passage 1) was 1 µg/mL (≈ 2.14 µM). For the same compound, the “MIC, broth microdilution” value (P. aeruginosa ATCC 27853 spontaneous mutant, AA139 selection 4X, plate 1, colony 6, drug-free passage 5) was 0.5 µg/mL (≈ 1.07 µM), the “MIC, broth microdilution” value (P. aeruginosa ATCC 27853 spontaneous mutant, AA139 selection 4X, plate 2, colony 1, drug-free passage 1) was 0.5, 0.5 µg/mL and the “MIC, broth microdilution” value (P. aeruginosa ATCC 27853 spontaneous mutant, AA139 selection 4X, plate 2, colony 1, drug-free passage 5) was 0.5, 0.5 µg/mL. For the same compound, the “MIC, broth microdilution” value (P. aeruginosa ATCC 27853 spontaneous mutant, AA139 selection 4X, plate 2, colony 2, drug-free passage 1) was 0.5, 0.5 µg/mL, the “MIC, broth microdilution” value (P. aeruginosa ATCC 27853 spontaneous mutant, AA139 selection 4X, plate 2, colony 2, drug-free passage 5) was 0.5, 0.5 µg/mL and the “MIC, broth microdilution” value (P. aeruginosa ATCC 27853 spontaneous mutant, AA139 selection 4X, plate 2, colony 3, drug-free passage 1) was 1 µg/mL (≈ 2.14 µM). The “MIC, broth microdilution” value (P. aeruginosa ATCC 27853 spontaneous mutant, AA139 selection 4X, plate 2, colony 3, drug-free passage 5) was 0.5 µg/mL (≈ 1.07 µM), the “MIC, broth microdilution” value (P. aeruginosa ATCC 27853 spontaneous mutant, AA139 selection 4X, plate 2, colony 4, drug-free passage 1) was 1 µg/mL (≈ 2.14 µM) and the “MIC, broth microdilution” value (P. aeruginosa ATCC 27853 spontaneous mutant, AA139 selection 4X, plate 2, colony 4, drug-free passage 5) was 0.5 µg/mL (≈ 1.07 µM). For the same compound, the “MIC, broth microdilution” value (P. aeruginosa ATCC 27853 spontaneous mutant, AA139 selection 8X, plate 1, colony 1, drug-free passage 1) was 1 µg/mL (≈ 2.14 µM), the “MIC, broth microdilution” value (P. aeruginosa ATCC 27853 spontaneous mutant, AA139 selection 8X, plate 1, colony 1, drug-free passage 5) was 0.5 µg/mL (≈ 1.07 µM) and the “MIC, broth microdilution” value (P. aeruginosa ATCC 27853 spontaneous mutant, AA139 selection 8X, plate 1, colony 2, drug-free passage 1) was 1 µg/mL (≈ 2.14 µM). The “MIC, broth microdilution” value (P. aeruginosa ATCC 27853 spontaneous mutant, AA139 selection 8X, plate 1, colony 2, drug-free passage 5) was 0.5 µg/mL (≈ 1.07 µM), the “MIC, broth microdilution” value (P. aeruginosa ATCC 27853 spontaneous mutant, AA139 selection 8X, plate 1, colony 3, drug-free passage 1) was 1 µg/mL (≈ 2.14 µM) and the “MIC, broth microdilution” value (P. aeruginosa ATCC 27853 spontaneous mutant, AA139 selection 8X, plate 1, colony 3, drug-free passage 5) was 0.5 µg/mL (≈ 1.07 µM). For the same compound, the “MIC, broth microdilution” value (P. aeruginosa ATCC 27853 spontaneous mutant, AA139 selection 8X, plate 1, colony 4, drug-free passage 1) was 1 µg/mL (≈ 2.14 µM), the “MIC, broth microdilution” value (P. aeruginosa ATCC 27853 spontaneous mutant, AA139 selection 8X, plate 1, colony 4, drug-free passage 5) was 0.5 µg/mL (≈ 1.07 µM) and the “MIC, broth microdilution” value (P. aeruginosa ATCC 27853 spontaneous mutant, AA139 selection 8X, plate 1, colony 5, drug-free passage 1) was 0.5, 0.5 µg/mL. The “MIC, broth microdilution” value (P. aeruginosa ATCC 27853 spontaneous mutant, AA139 selection 8X, plate 1, colony 5, drug-free passage 5) was 0.5, 0.5 µg/mL, the “MIC, broth microdilution” value (P. aeruginosa UNT 138-1 parent strain not exposed to drug) was 0.5 µg/mL (≈ 1.07 µM) and the “MIC, broth microdilution” value (P. aeruginosa UNT 138-1 spontaneous mutant, AA139 selection 4X, plate 1, colony 1, drug-free passage 1) was 1, 1 µg/mL. The “MIC, broth microdilution” value (P. aeruginosa UNT 138-1 spontaneous mutant, AA139 selection 4X, plate 1, colony 1, drug-free passage 5) was 1, 1 µg/mL, the “MIC, broth microdilution” value (P. aeruginosa UNT 138-1 spontaneous mutant, AA139 selection 4X, plate 1, colony 2, drug-free passage 1) was 0.5, 0.5 µg/mL and the “MIC, broth microdilution” value (P. aeruginosa UNT 138-1 spontaneous mutant, AA139 selection 4X, plate 1, colony 2, drug-free passage 5) was 0.5, 0.5 µg/mL. For the same compound, the “MIC, broth microdilution” value (P. aeruginosa UNT 138-1 spontaneous mutant, AA139 selection 4X, plate 1, colony 3, drug-free passage 1) was 1 µg/mL (≈ 2.14 µM), the “MIC, broth microdilution” value (P. aeruginosa UNT 138-1 spontaneous mutant, AA139 selection 4X, plate 1, colony 3, drug-free passage 5) was 0.5 µg/mL (≈ 1.07 µM) and the “MIC, broth microdilution” value (P. aeruginosa UNT 138-1 spontaneous mutant, AA139 selection 4X, plate 1, colony 4, drug-free passage 1) was 0.5, 0.5 µg/mL. The “MIC, broth microdilution” value (P. aeruginosa UNT 138-1 spontaneous mutant, AA139 selection 4X, plate 1, colony 4, drug-free passage 5) was 0.5, 0.5 µg/mL and the “MIC, broth microdilution” value (P. aeruginosa UNT 138-1 spontaneous mutant, AA139 selection 4X, plate 1, colony 5, drug-free passage 1) was 1 µg/mL (≈ 2.14 µM).

— PMC7311426, “An amphipathic peptide with antibiotic activity against multidrug-resistant Gram-negative bacteria” (Nature Communications, 2020)
